Reference: PubChem BioAssay (NCI)
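Method: 48-hour compound exposure of cells in 96-well plates, five concentrations, linear interpolation of endpoints. GI50 is the concentration that inhibits growth by half. The concentration for full growth arrest is given as TGI.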

Experiments:
Experiment in all cases: NCI tumour cell line growth inhibition, 48 h
ACHN renal = tested on: ACHN renal
HS 578T breast = tested on: HS 578T breast
OVCAR-8 ovarian = tested on: OVCAR-8 ovarian
SF-295 CNS = tested on: SF-295 CNS
SK-MEL-28 melanoma = tested on: SK-MEL-28 melanoma
SK-MEL-5 melanoma = tested on: SK-MEL-5 melanoma
SR leukemia = tested on: SR leukemia
TK-10 renal = tested on: TK-10 renal
UACC-257 melanoma = tested on: UACC-257 melanoma
UACC-62 melanoma = tested on: UACC-62 melanoma

Row | Compound | GI50 (ACHN renal) [µM] | TGI (ACHN renal) [µM] | GI50 (HS 578T breast) [µM] | TGI (HS 578T breast) [µM] | GI50 (OVCAR-8 ovarian) [µM] | TGI (OVCAR-8 ovarian) [µM] | GI50 (SF-295 CNS) [µM] | TGI (SF-295 CNS) [µM] | GI50 (SK-MEL-28 melanoma) [µM] | TGI (SK-MEL-28 melanoma) [µM] | GI50 (SK-MEL-5 melanoma) [µM] | TGI (SK-MEL-5 melanoma) [µM] | GI50 (SR leukemia) [µM] | TGI (SR leukemia) [µM] | GI50 (TK-10 renal) [µM] | TGI (TK-10 renal) [µM] | GI50 (UACC-257 melanoma) [µM] | TGI (UACC-257 melanoma) [µM] | GI50 (UACC-62 melanoma) [µM] | TGI (UACC-62 melanoma) [µM]
1 | COc1ccc(/C=C/C(=O)c2ccc(O)c(CN3CCN(c4cc5c(cc4F)c(=O)c(C(=O)O)cn5C4CC4)CC3)c2)cc1 | 2.18 | 17.9 | 0.714 | > 100 | 0.644 | > 100 | 2.1 | > 100 | 1.72 | > 100 | 1.57 | > 100 | 0.354 | 14.9 | 7.16 | 74.6 | 2.17 | 69.9 | 1.32 | > 100
2 | COC(=O)c1ccccc1OCc1cc(=O)oc2ccc(C)cc12 | – | > 100 | – | > 100 | – | > 100 | – | > 81.2 | – | > 100 | – | > 100 | – | > 100 | – | > 100 | – | > 100 | – | > 66.6
3 | CN[C@H](C#Cc1c(F)ccc2c1/C(=C/c1[nH]ccc1OC)C(=O)N2)CO | 0.115 | 2.71 | 0.212 | 12.9 | 0.551 | 4.25 | 0.946 | 25 | 0.646 | 4.31 | 0.511 | 1.92 | 0.109 | 1.91 | 0.247 | 2.25 | 1.52 | 4.93 | 0.671 | 4.6
4 | O=C(Nc1cccc(-n2cc(-c3ccncc3)c(-c3cc(O)cc(Cl)c3)n2)c1)Nc1ccc(Cl)c(C(F)(F)F)c1 | 3.1 | 15.3 | 3.29 | > 100 | 2.15 | 5.55 | 2.05 | 4.95 | 2.01 | 6.2 | 1.69 | 3.23 | 2.01 | 5.18 | – | – | 1.99 | 5.34 | 2.08 | 4.38
5 | CC1OC(OC2C[C@](O)(C(=O)CF)Cc3c(O)c4c(c(O)c32)C(=O)c2ccccc2C4=O)CC(N)C1O (stereo not given in full) | – | 0.0777 | – | 0.117 | – | 0.231 | – | 4.74 | – | 1.91 | – | 0.0657 | – | 0.0708 | – | 0.497 | – | 1.21 | – | 0.117
6 | CCOC(=O)c1cc2c(n1Cc1cccc(OC)c1)-c1oncc1CCC2 | 4.42 | > 100 | 1.6 | 24.8 | 3.21 | > 100 | 0.616 | > 100 | 5.55 | > 100 | 0.693 | 14.8 | 0.301 | 26.8 | 7 | > 100 | 3.51 | > 100 | 0.712 | > 100
7 | C[C@]12CCc3sc(NCCc4ccccc4)nc3C1=CC[C@@H]1[C@@H]2CC[C@]2(C)C(=O)CC[C@@H]12 | 1.96 | 3.75 | 2.85 | > 100 | 2.77 | > 100 | 18.9 | > 100 | 3.37 | 18.9 | 4.57 | 52.7 | 3.06 | > 100 | 4.15 | > 100 | 4.92 | 79.8 | 2.67 | 10.6
8 | COc1cc2oc3cc(=O)cc4oc(-c5ccccc5)cc(c2c2c1CCC(c1ccccc1)O2)c43 (stereo not given) | – | 61.9 | – | > 100 | – | > 100 | – | 54.9 | – | > 100 | – | 65.1 | – | > 100 | – | 83.4 | – | 69 | – | > 100
9 | CC(=O)OC[C@]12CC[C@@H](C(=O)CBr)[C@@H]1[C@H]1CC[C@@H]3[C@@]4(C)CCCNC(C)(C)[C@@H]4CC[C@@]3(C)[C@]1(C)CC2 | 2.02 | 4.28 | 15.9 | > 100 | 4.1 | 23.8 | 14.6 | 28.2 | 2.23 | 4.23 | 4.55 | 15.8 | 2 | 5.71 | 2.93 | 11.6 | 9.2 | 23.1 | 2.11 | 4.71
10 | OCC(O)C(Cl)CCl (stereo not given) | – | > 100 | – | > 100 | – | > 100 | – | > 100 | – | > 100 | – | > 100 | – | > 100 | – | > 100 | – | > 100 | – | > 100
11 | N#CCCN(CCCN(CCCN(C(=O)Nc1ccccc1)c1ccccc1)C(=O)Nc1ccccc1)C(=O)Nc1ccccc1 | – | > 8.75 | – | > 100 | 85.2 | > 100 | > 100 | > 100 | > 100 | > 100 | > 100 | > 100 | – | > 8.75 | > 100 | > 100 | > 100 | > 100 | > 100 | > 100
12 | c1cc2n(n1)CCN2 | – | 5330 | – | > 5490 | – | > 9400 | – | 4350 | – | > 10000 | – | > 7740 | – | > 9010 | – | > 10000 | – | > 10000 | – | 6540
13 | O=c1ccn(C2CC(O)C(CO)O2)c(=O)[nH]1 (stereo not given) | > 5000 | > 5000 | > 5000 | > 5000 | > 5000 | > 5000 | > 5000 | > 5000 | > 5000 | > 5000 | > 5000 | > 5000 | > 5000 | > 5000 | > 5000 | > 5000 | > 5000 | > 5000 | > 5000 | > 5000
14 | COc1ccc2c(=O)cc(-c3ccncc3)oc2c1OC | – | > 100 | – | 53.7 | – | > 100 | – | > 100 | – | 93.1 | – | 56.8 | – | 39.4 | – | > 100 | – | > 100 | – | 32.3
